From US6426413B1, “Inhibitors of caspases” (Vertex Pharmaceuticals Incorporated, priority 1998, dated 2002)

Tests used:
Human whole blood = test: Whole blood assay for IL-1β production; type: cell-based; conditions: LPS 5.0 ng/ml, 16-18 hr at 30° C.
Procedure: The whole blood assay is a simple method for measuring the production of IL-1β (or other cytokines) and the activity of potential inhibitors. The complexity of this assay system, with its full complement of lymphoid and inflammatory cell types, spectrum of plasma proteins and red blood cells is an ideal in vitro representation of human in vivo physiologic conditions.
Human whole blood sample (^˜30-50 cc) 1.5 ml Eppendorf tubes
Set incubator or water bath at 30°C. Aliquot 0.25 ml of blood into 1.5 ml Eppendorf tubes. Note: be Sure to invert the whole blood sample tubes after every two aliquots. Differences in replicates may result if is the cells sediment and are not uniformly suspended. Use of a positive displacement pipette will also minimize differences between replicate aliquots.
Prepare drug dilutions in sterile pyrogen-free saline by serial dilution. A dilution series which brackets the apparent Ki for a test compound determined in an ICE inhibition assay is generally used for the primary compound screen. For extremely hydrophobic compounds, prepare compound dilutions in fresh plasma obtained from the same blood donor or in PBS-containing 5% DMSO to enhance solubility.
Add 25 μl test compound dilution or vehicle control and gently mix the sample. Then add 5.0 μl LPS solution (250 ng/ml stocked prepared fresh: 5.0 ng/ml final concentration LPS), and mix again. Incubate the tubes at […] in a water bath for 16-18 hr with occasional mixing. Alternatively, the tubes can be placed in a rotator set at 4 rpm for the same incubation period. This assay should be set up in duplicate or triplicate with the following controls: negative control—no LPS; positive control—no test inhibitor; vehicle control—the highest concentration of DMSO or compound solvent used in the experiment. Additional saline is added to all control tubes to normalize volumes for both control and experimental whole blood test samples.
After the incubation period, whole blood samples are centrifuged for 10 minutes at ^˜2000 rpm in the microfuge, plasma is transferred to a fresh microfuge tube and centrifuged at 1000×g to pellet residual platelets if necessary. Plasma samples may be stored frozen at −70° C. prior to assay for cytokine levels by ELISA.
R & D Systems (6.14 McKinley Place N.E. Minneapolis, Minn. 55413) Quantikine kits may be used for measurement of IL-1β and TNF-α. The assays are performed according to the manufacturer's directions. IL-1β levels of ^˜1-5 ng/ml in positive controls among a range of individuals may be observed. A 1:200 dilution of plasma for all samples is usually sufficient for experiments for ELISA results to fall on the linear range of the ELISA standard curves. It may be necessary to optimize standard dilutions if you observe differences in the whole blood assay. Nerad, J. L. et al., J. Leukocyte Biol., 52, pp. 687-692 (1992).

ICE Caspase-1 = target: T1, ICE Caspase-1 (Homo sapiens, UniProt P29466); test: ICE (Caspase-1) enzyme inhibition assay, Ki; type: biochemical; conditions: in vitro enzyme assay
T1 sequence (P29466 120-297 limits assumed): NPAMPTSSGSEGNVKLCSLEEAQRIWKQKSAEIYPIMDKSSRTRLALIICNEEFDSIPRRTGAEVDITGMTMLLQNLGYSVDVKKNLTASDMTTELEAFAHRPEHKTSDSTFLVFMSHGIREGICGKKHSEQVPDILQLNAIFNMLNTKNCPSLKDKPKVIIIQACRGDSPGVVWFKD
T1 sequence (P29466 317-404 limits assumed): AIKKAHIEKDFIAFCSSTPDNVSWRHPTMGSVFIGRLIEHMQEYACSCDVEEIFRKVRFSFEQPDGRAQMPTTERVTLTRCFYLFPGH
Procedure: This assay is run using an Succinyl-Tyr-Val-Ala-Asp-p-Nitroanilide substrate. Synthesis of analogous substrates is described by L. A. Reiter (Int. J. Peptide Protein Res., 43, pp. 87-96 (1994)). The assay mixture contains:
The visible ICE assay is run in a 96-well microtiter plate. Buffer, ICE and DMSO (if inhibitor is present) are added to the wells in the order listed. The components are left to incubate at room temperature for 15 minutes starting at the time that all components are present in all wells. The microtiter plate reader is set to incubate at 37° C. After the 15 minute incubation, substrate is added directly to the wells and the reaction is monitored by following the release of the chromophore (pNA) at 405-603 nm at 37° C. for 20 minutes. A linear fit of the data is performed and the rate is calculated in mOD/min. DMSO is only present during experiments involving inhibitors, buffer is used to make up the volume to 100 μl in the other experiments.
This assay is run essentially according to Thornberry et al., Nature, 356 pp. 768-774 (1992), using substrate 17 referenced in that article. The substrate is: Acetyl-Tyr-Val-Ala-Asp-amino-4-methylcoumarin (AMC). The following components are mixed:
The assay is run in a 96-well microtiter plate. Buffer and ICE are added to the wells. The components are left to incubate at 37° C. for 15 minutes in a temperature-controlled wellplate. After the 15 minute incubation, the reaction is started by adding substrate directly to the wells and the reaction is monitored at 37° C. for 30 minutes by following the release of the AMC fluorophore using an excitation wavelength for 380 nm and an emission wavelength of 460 nm. A linear fit of the data for each well is performed and a rate is determined in fluorescence units per second.
(§1) For determination of enzyme inhibition constants (Ki) or the mode of inhibition (competitive, uncompetitive or noncompetitive), the rate data determined in the enzyme assays at varying inhibitor concentrations are computer-fit to standard enzyme kinetic equations (see I. H. Segel, Enzyme Kinetics, Wiley-Interscience, 1975).

[1] = tested on: Human Peripheral Blood Mononuclear Cells (PBMC); test: PBMC cell assay: IL-1β assay with LPS-stimulated human PBMC; type: cell-based; conditions: mature IL-1β in supernatant, LPS 5 ng/ml, 16-18 hr
Text: IL-1β Assay with a Mixed Population of Human Peripheral Blood Mononuclear Cells (PBMC) or Enriched Adherent Mononuclear Cells
Processing of pre-IL-1β by ICE can be measured in cell culture using a variety of cell sources. Human PBMC obtained from healthy donors provides a mixed population of lymphocyte subtypes and mononuclear cells that produce a spectrum of interleukins and cytokines in response to many classes of physiological stimulators. Adherent mononuclear cells from PBMC provides an enriched source of normal monocytes for selective studies of cytokine production by activated cells.
An initial dilution series of test compound in DMSO or ethanol is prepared, with a subsequent dilution into RPMI-10% FBS media (containing 2 mM L-glutamine, 10 mM HEPES, 50 U and 50 μg/ml pen/strep) respectively to yield drugs at 4×the final test concentration containing 0.4% DMSO or 0.4% ethanol. The final concentration of DMSO is 0.1% for all drug dilutions. A concentration titration which brackets the apparent Ki for a test compound determined in an ICE inhibition assay is generally used for the primary compound screen.
Generally 5-6 compound dilutions are tested and the cellular component of the assay is performed in duplicate, with duplicate ELISA determinations on each cell culture supernatant.
Buffy coat cells isolated from one pint human blood (yielding 40-45 ml final volume plasma plus cells) are diluted with media to 80 ml and LeukoPREP separation tubes (Becton Dickinson) are each overlaid with 10 ml of cell suspension. After 15 min centrifugation at 1500-1800×g, the plasma/media layer is aspirated and then the mononuclear cell layer is collected with a Pasteur pipette and transferred to a 15 ml conical centrifuge tube (Corning). Media is added to bring the volume to 15 ml, gently mix the cells by inversion and centrifuge at 300×g for 15 min. The PBMC pellet is resuspended in a small volume of media, the cells are counted and adjusted to 6×10^6 cells/ml.
For the cellular assay, 1.0 ml of the cell suspension is added to each well of a 24-well flat bottom tissue culture plate (Corning), 0.5 ml test compound dilution and 0.5 ml LPS solution (Sigma #L-3012; 20 ng/ml solution prepared in complete RPMI media; final LPS concentration 5 ng/ml). The 0.5 ml additions of test compound and LPS are usually sufficient to mix the contents of the wells. Three control mixtures are run per experiment, with either LPS alone, solvent vehicle control, and/or additional media to adjust the final culture volume to 2.0 ml. The cell cultures are incubated for 16-18 hr at 37° C. in the presence of 5% CO2.
At the end of the incubation period, cells are harvested and transferred to 15 ml conical centrifuge tubes. After centrifugation for 10 min at 200×g, supernatants are harvested and transferred to 1.5 ml Eppendorf tubes. It may be noted that the cell pellet may be utilized for a biochemical evaluation of pre-IL-1β and/or mature IL-1β content in cytosol extracts by Western blotting or ELISA with pre-IL-1β specific antisera.
PBMC are isolated and prepared as described above. Media (1.0 ml) is first added to wells followed by 0.5 ml of the PBMC suspension. After a one hour incubation, plates are gently shaken and nonadherent cells aspirated from each well. Wells are then gently washed three times with 1.0 ml of media and final resuspended in 1.0 ml media. The enrichment for adherent cells generally yields 2.5-3.0×10^5 cells per well. […]

Flice Caspase-8 = Flice Caspase-8 (Homo sapiens, UniProt Q14790); test: Flice (Caspase-8) enzyme inhibition, Ki; type: biochemical; conditions: in vitro enzyme assay
Flice Caspase-8, sequence (Q14790 217-374 limits assumed): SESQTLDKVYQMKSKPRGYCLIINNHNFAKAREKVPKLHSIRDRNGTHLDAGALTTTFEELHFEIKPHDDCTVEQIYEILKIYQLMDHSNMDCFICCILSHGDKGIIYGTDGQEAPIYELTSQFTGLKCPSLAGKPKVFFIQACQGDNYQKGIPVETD
Flice Caspase-8, sequence (Q14790 385-479 limits assumed): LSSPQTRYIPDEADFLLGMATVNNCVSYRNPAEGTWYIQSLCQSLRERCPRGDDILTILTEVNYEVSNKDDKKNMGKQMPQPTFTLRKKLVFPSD
Text: (§2) Other assays that may be used to evaluate the compounds of this invention are disclosed in PCT application PCT/US96/20843, published Jun. 26, 1997, under publication no. WO 97/22619, which is incorporated herein by reference. Such assays include in vivo bioavailability determinations, pharmacokinetic studies in the mouse, inhibition of ICE homologs, inhibition of apoptosis, in vivo acute assay for anti-inflammatory efficacy, measurement of blood levels, IGIF assays, mouse carrageenan peritoneal inflammation assay, and type II collagen-induced arthritis.
as §1

CPP32 Caspase-3 = target: T2, CPP32 Caspase-3 (Homo sapiens, UniProt P42574); test: CPP32 (Caspase-3) enzyme inhibition, Ki; type: biochemical; conditions: in vitro enzyme assay
T2 sequence (P42574 29-175 limits assumed): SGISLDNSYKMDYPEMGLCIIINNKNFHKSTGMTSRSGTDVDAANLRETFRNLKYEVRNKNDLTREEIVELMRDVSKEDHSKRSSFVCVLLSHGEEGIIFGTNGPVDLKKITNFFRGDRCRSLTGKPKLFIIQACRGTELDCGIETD
T2 sequence (P42574 176-277 limits assumed): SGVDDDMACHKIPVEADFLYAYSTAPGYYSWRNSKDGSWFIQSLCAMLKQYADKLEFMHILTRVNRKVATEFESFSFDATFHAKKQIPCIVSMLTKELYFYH
Text: as §2, §1

Structure (SMILES): O=C[C@H](CC(=O)O)NC(=O)CN1C(=O)[C@@H](NC(=O)c2nccc3ccccc23)CCC(=O)N1Cc1ccccc1 [Compound 11a, 3-(2-{2-Benzyl-6-[(isoquinoline-1-carbonyl)-amino]-3,7-dioxo-[1,2]diazepan-1-yl}-acetylamino)-4-oxo-butyric acid]
- IC50 (Human whole blood): 7300 nM
- Ki (ICE Caspase-1): 101 nM
- IC50 [1]: 1400 nM

Structure (SMILES): CS(=O)(=O)N1CCC[C@H](NC(=O)c2cc(Cl)c(O)c(Cl)c2)C(=O)N1CC(=O)N[C@H](C=O)CC(=O)O [Compound 27, 3-{2-[6-(3,5-Dichloro-4-hydroxy-benzoylamino)-2-methanesulfonyl-7-oxo-[1,2]diazepan-1-yl]-acetylamino}-4-oxo-butyric acid]
- IC50 (Human whole blood): 1900 nM
- Ki (ICE Caspase-1): 17 nM
- IC50 [1]: 1000 nM

Structure (SMILES): CCCN1C(=O)CC[C@H](NC(=O)c2cc(Cl)c(O)c(Cl)c2)C(=O)N1CC(=O)N[C@H](C=O)CC(=O)O [Compound 11c, 3-{2-[6-(3,5-Dichloro-4-hydroxy-benzoylamino)-3,7-dioxo-2-propyl-[1,2]diazepan-1-yl]-acetylamino}-4-oxo-butyric acid]
- IC50 (Human whole blood): 1450 nM
- Ki (Flice Caspase-8): 1500 nM
- Ki (ICE Caspase-1): 16 nM
- Ki (CPP32 Caspase-3): 22200 nM
- IC50 [1]: 420 nM

Structure (SMILES): CCCN1C(=O)CC[C@H](NC(=O)c2nccc3ccccc23)C(=O)N1CC(=O)N[C@H](C=O)CC(=O)O [Compound 11b, 3-(2-(6-[(Isoquinoline-1-carbonyl)-amino]-3,7-dioxo-2-propyl-[1,2]diazepan-1-yl)-acetylamino)-4-oxo-butyric acid]
- IC50 (Human whole blood): 5800 nM
- Ki (ICE Caspase-1): 120 nM
- IC50 [1]: 1500 nM

Structure (SMILES): CC(C(=O)N[C@H](C=O)CC(=O)O)N1C(=O)[C@@H](NC(=O)c2cc(Cl)c(O)c(Cl)c2)CCC(=O)N1C (mixture of isomers) [Compound 20, 3-{2-[6-(3,5-Dichloro-4-hydroxy-benzoylamino)-2-methyl-3,7-dioxo-[1,2]diazepan-1-yl]-propionylamino}-4-oxo-butyric acid]
- IC50 (Human whole blood): 830 nM
- Ki (ICE Caspase-1): 0.9 nM
- IC50 [1]: 540 nM
